Values after ≈ are worked out from the molar mass of the structure shown. Read-outs that look alike come from different tables or passages of the source.
Assays:
Format in all cases: cell-based
Staph. aureus = test: in vitro agar dilution assay (MIC), Staph. aureus; conditions: Staphylococcus aureus
Staph. epi = test: in vitro agar dilution assay (MIC), Staph. epi; conditions: read-out: Agar Dilution MIC
Strep. A = test: in vitro agar dilution assay (MIC), Strep. A; conditions: read-out: Agar Dilution MIC
Excerpt: (§1) A typical and preferred compound provided by this invention is 7-(thieno[3,2-b]thien-2-yl)glycylamido-3-methyl-3-cephem-4-carboxylic acid, the compound illustrated in Example 1. The antibacterial activity of this compound and others of the invention has been determined in standard in vitro agar dilution assays against a variety of gram positive microorganisms. The following Tables present typical minimum inhibitory concentrations (MIC's) in μg/ml for several compounds of the invention when evaluated against the indicated microorganisms. MIC's for several known compounds are also presented for comparison.

Strep. PN = test: in vitro agar dilution assay (MIC), Strep. PN; conditions: read-out: Agar Dilution MIC
Excerpt: as §1

Strep. D = test: in vitro agar dilution assay (MIC), Strep. D; conditions: for MIC: read-out: Agar Dilution MIC
Excerpt: as §1

H. influ. = test: in vitro agar dilution assay (MIC), H. influ.
E. coli = test: in vitro agar dilution assay (MIC), E. coli; conditions: Escherichia coli
Klebsiella = test: in vitro agar dilution assay (MIC), Klebsiella
[1] = read-out: Agar Dilution MIC, Staph. aureus strain S13E
[2] = Klebsiella strain X26, read-out: Agar Dilution MIC
[3] = Klebsiella strain X68, read-out: Agar Dilution MIC
[4] = Staph. aureus strain X400, read-out: Agar Dilution MIC
[5] = Staph. aureus strain X1.1, read-out: Agar Dilution MIC
[6] = Klebsiella strain KAE, read-out: Agar Dilution MIC
[7] = Staph. aureus strain V41, read-out: Agar Dilution MIC

Compound | MIC (Staph. aureus; [1]) [mg/L] | MIC (Staph. epi; Staph. epi strain EPI1) [mg/L] | MIC (Strep. A; Strep. A strain C203) [mg/L] | MIC (Strep. PN; Strep. PN strain PARK) [mg/L] | MIC (Strep. D; Strep. D strain 2041) [mg/L] | MIC (H. influ.; H. influ. strain 76) [mg/L] | MIC (H. influ.; H. influ. strain C.L.) [mg/L] | MIC (E. coli; E. coli strain EC14) [mg/L] | MIC (E. coli; E. coli strain N10) [mg/L] | MIC (Klebsiella; [2]) [mg/L] | MIC (Klebsiella; [3]) [mg/L] | MIC (E. coli; E. coli strain TEM) [mg/L] | MIC (Staph. aureus; [4]) [mg/L] | MIC (Staph. aureus; read-out: Agar Dilution MIC) [mg/L] | MIC (Staph. aureus; [5]) [mg/L] | MIC (Staph. epi; Staph. epi strain 222) [mg/L] | MIC (Strep. D; Strep. D strain X66) [mg/L] | MIC (Klebsiella; [6]) [mg/L] | MIC (Staph. aureus; [7]) [mg/L] | other results
CC1(C)S[C@@H]2[C@H](NC(=O)[C@H](N)c3ccccc3)C(=O)N2[C@H]1C(=O)O [Ampicillin, reference compound] | 64 (≈ 183 µM) | 8 (≈ 22.9 µM) | 0.03 (≈ 0.0859 µM) | 0.03 (≈ 0.0859 µM) | 2 (≈ 5.72 µM) | 16 (≈ 45.8 µM) | 0.5 (≈ 1.43 µM) | 4 (≈ 11.4 µM) | 8 (≈ 22.9 µM) | 16 (≈ 45.8 µM) | 16 (≈ 45.8 µM) | – | – | – | – | – | – | – | – | MIC (Strep. D): 4 mg/L (≈ 11.4 µM)
CC1=C(C(=O)O)N2C(=O)[C@@H](NC(=O)[C@H](N)c3ccccc3)[C@H]2SC1 [Cephalexin, reference compound] | 128 (≈ 368 µM) | 32 (≈ 92.1 µM) | – | – | – | – | – | 4 (≈ 11.5 µM) | 8 (≈ 23 µM) | – | – | 8 (≈ 23 µM) | – | – | – | – | – | – | – | MIC (Staph. epi): 8 mg/L (≈ 23 µM); MIC (Strep. A): 0.5 mg/L (≈ 1.44 µM); MIC (Strep. PN): 2 mg/L (≈ 5.76 µM); Agar Dilution MIC (Strep. D; Strep. D strain 2041): 128 mg/L; MIC (Strep. D): 128 mg/L (≈ 368 µM); MIC (Klebsiella; read-out: Agar Dilution MIC, Klebsiella strain KAE): 128 mg/L (≈ 368 µM); MIC (Klebsiella; read-out: Agar Dilution MIC, Klebsiella strain X26): 4 mg/L (≈ 11.5 µM); MIC (Klebsiella; read-out: Agar Dilution MIC, Klebsiella strain X68): 8 mg/L (≈ 23 µM)
CC1=C(C(=O)O)N2C(=O)[C@@H](NC(=O)[C@H](N)c3cc4sccc4s3)[C@H]2SC1 [Ex. 1A, 7-D-(thieno[3,2-b]thien-2-yl)-glycylamido-3-methyl-3-cephem-4-carboxylic acid] | 64 (≈ 156 µM) | 16 (≈ 39.1 µM) | 0.25 (≈ 0.61 µM) | 1 (≈ 2.44 µM) | > 64 | 2 (≈ 4.88 µM) | 64 (≈ 156 µM) | > 64 | > 64 | 8 (≈ 19.5 µM) | > 64 | > 64 | > 64 | 32 (≈ 78.1 µM) | 0.5 (≈ 1.22 µM) | 2 (≈ 4.88 µM) | > 64 | > 64 | – | –
CC1=C(C(=O)O)N2C(=O)[C@@H](NC(=O)[C@@H](N)c3cc4sccc4s3)[C@H]2SC1 [Ex. 1B, 7-L-(thieno[3,2-b]thien-2-yl)-glycylamido-3-methyl-3-cephem-4-carboxylic acid] | 64 (≈ 156 µM) | 64 (≈ 156 µM) | 16 (≈ 39.1 µM) | 16 (≈ 39.1 µM) | > 64 | – | 64 (≈ 156 µM) | > 64 | > 64 | > 64 | > 64 | > 64 | > 64 | 32 (≈ 78.1 µM) | 8 (≈ 19.5 µM) | 16 (≈ 39.1 µM) | > 64 | > 64 | – | –
CC1=C(C(=O)O)N2C(=O)[C@@H](NC(=O)[C@@H](N)c3cc4sc(Cl)cc4s3)[C@H]2SC1 [Ex. 2A, 7-L-(5-chlorothieno[3,2-b]thien-2-yl)glycylamido-3-methyl-3-cephem-4-carboxylic acid] | 32 (≈ 72.1 µM) | 16 (≈ 36 µM) | 1 (≈ 2.25 µM) | 2 (≈ 4.5 µM) | > 64 | 2 (≈ 4.5 µM) | 64 (≈ 144 µM) | > 64 | > 64 | 64 (≈ 144 µM) | > 64 | > 64 | > 64 | – | 1 (≈ 2.25 µM) | 2 (≈ 4.5 µM) | > 64 | > 64 | 64 (≈ 144 µM) | –
CC1=C(C(=O)O)N2C(=O)[C@@H](NC(=O)[C@H](N)c3cc4sc(Cl)cc4s3)[C@H]2SC1 [Ex. 2B, 7-D-(5-chlorothieno[3,2-b]thien-2-yl)glycylamido-3-methyl-3-cephem-4-carboxylic acid] | – | 4 (≈ 9.01 µM) | 0.125 (≈ 0.282 µM) | 0.25 (≈ 0.563 µM) | 64 (≈ 144 µM) | 2 (≈ 4.5 µM) | 32 (≈ 72.1 µM) | > 64 | > 64 | 16 (≈ 36 µM) | > 64 | > 64 | > 64 | – | 0.25 (≈ 0.563 µM) | 0.5 (≈ 1.13 µM) | > 64 | > 64 | 16 (≈ 36 µM) | –
CC1=C(C(=O)O)N2C(=O)[C@@H](NC(=O)[C@H](N)c3cc4ccsc4s3)[C@H]2SC1 [Ex. 3A, 7-D-(thieno[2,3-b]thien-2-yl)-glycylamido-3-methyl-3-cephem-4-carboxylic acid] | 16 (≈ 39.1 µM) | 4 (≈ 9.77 µM) | 0.25 (≈ 0.61 µM) | 0.5 (≈ 1.22 µM) | > 64 | 2 (≈ 4.88 µM) | – | 64 (≈ 156 µM) | > 64 | 8 (≈ 19.5 µM) | > 64 | > 64 | > 64 | 32 (≈ 78.1 µM) | 0.5 (≈ 1.22 µM) | 1 (≈ 2.44 µM) | > 64 | > 64 | – | –
CC1=C(C(=O)O)N2C(=O)[C@@H](NC(=O)[C@@H](N)c3cc4ccsc4s3)[C@H]2SC1 [Ex. 3B, 7-L-(thieno[2,3-b]thien-2-yl)-glycylamido-3-methyl-3-cephem-4-carboxylic acid] | 64 (≈ 156 µM) | 8 (≈ 19.5 µM) | 1 (≈ 2.44 µM) | 2 (≈ 4.88 µM) | > 64 | 1 (≈ 2.44 µM) | 16 (≈ 39.1 µM) | > 64 | > 64 | 16 (≈ 39.1 µM) | > 64 | > 64 | > 64 | – | 1 (≈ 2.44 µM) | 2 (≈ 4.88 µM) | > 64 | > 64 | 64 (≈ 156 µM) | –

Source: patent US4581352A, “Thienothienylglycyl cephalosporin derivatives” (priority 1984, dated 1986)
